The source of these data is patent US10793542B2, “Hetroarylamine compounds for modulating the hedgehog pathway and preparing method and uses thereof” (DEVELOPMENT CENTER FOR BIOTECHNOLOGY, priority 2016, dated 2020).

Assay type in all cases: cell-based
One experiment deals with T1, Smo wild type (Homo sapiens, UniProt Q99835).
T1 construct: expressed in transfected cells; host or cells: C3H10T1/2 cells (ATCC CCL-226), transient transfection with pLPCX-SMO
Nature of the experiment: Reporter assay of C3H10T1/2-Gli-Luc cells transfected with wild-type Smo, without SAG. To be noted: C3H10T1/2 cells transfected with pLPCX-SMO, no SAG, 48 hr; read-out: Inhibition of C3H10T1/2-Gli-Luc-Smo-WT [IC50. How it is done: (§1) A transient transfection system with a Smo wild type or a Smo D473H mutant was also used for compound screening. For the SMO inhibition experiments, cells were transfected with an additional 500 ng/well of wild-type or D473H-mutant type SMO construct (pLPCX-SMO or pLPCX-SMO-D473H). After 24 h, transfected cells were collected by trypsin treatment and re-plated in 96-well plates in an RPMI medium containing 0.5% FBS with a density of 1.5×10^4 cells/well. Compounds were dissolved in DMSO with serial dilutions and were then added to the assay plate. The assay plates were incubated at 37° C. for 48 hr.
(§2) Firefly luciferase and Renilla luciferase activity was determined using the Dual-Glo Luciferase reporter assay system (Promega) with a Victor3 plate reader (PerkinElmer Life Sciences). Firefly luciferase readings were normalized to Renilla luciferase to correct for transfection efficiency. Luminance reading for the C3H10T1/2-Gli-Luc assay was normalized based on DMSO control with SAG stimulation (100% pathway activity) and without SAG stimulation (0% pathway activity). IC50 values, defined as the inflection point of the logistic curve, were determined by nonlinear regression using the Prism 5 software (GraphPad).
(§3) The reporter assay of C3H10T1/2-Gli-Luc cells transfected with a wild-type, D473H mutant Smo mutant was carried out with the same protocol but without SAG stimulation. Luminance reading for the SMO inhibition experiments assay was normalized based on DMSO control (100% of the pathway activity) and a known Smo antagonist (ALLO-2 at 10 μM, 0% of the pathway activity).
A general note: A reporter such as luciferase makes a cellular process visible.

Experiment [1] has as its system hedgehog pathway (pGL3-7xGli-Luciferase reporter in C3H10T1/2 cells). The experiment can be described thus: Transient transfection of C3H10T1/2 and Gli-Luc reporter assay with SAG stimulation. Conditions: Mus musculus, C3H 10T1/2, SAG 20 nM, 48 hr, read-out: Inhibition of Gli-Luc expression [IC50. The method, then: A cell-based screen for inhibitors of the hedgehog pathway was performed using a transient transfection system in C3H10T1/2 cells with pGL3-7xGli-Luciferase reporter plasmids C3H10T1/2 cells (ATCC, cat.#CCL-226) were seeded into 6-well plates at 8×10^4 cells/well in a BME medium containing 10% heat-inactivated FBS. Cells were transfected the next morning with 500 ng/well pGL3-7xGli-Luciferase reporter plasmids and 100 ng/well pRL-TK Renilla luciferase reporter plasmids (Promega)using GeneJuice transfection reagent (Novagene). After 24 h, transfected cells were collected by trypsin treatment and re-plated in 96-well plates in an RPMI medium containing 0.5% FBS with a density of 1.5×10^4 cells/well. Compounds were dissolved in DMSO with serial dilutions and were then added to the assay plate. SAG (Hh-Ag 1.3) (Santa Cruz) was added to the assay plated for a final concentration 20 nM. The assay plates were incubated at 37° C. for 48 hr.
as §2

A further experiment concerns the target T2, Smo D473H mutant (Homo sapiens, UniProt Q99835, D473H).
T2 construct: expressed in transfected cells; host or cells: C3H10T1/2 cells (ATCC CCL-226), transient transfection with pLPCX-SMO-D473H
Nature of the experiment: Reporter assay of C3H10T1/2-Gli-Luc cells transfected with Smo D473H mutant, without SAG. Conditions: C3H10T1/2 cells transfected with pLPCX-SMO-D473H, no SAG, 48 hr; read-out: Inhibition of C3H10T1/2-Gli-Luc-Smo-D473H [IC50. How it is done: as §1, §2, §3

T1 sequence (Q99835 28-787): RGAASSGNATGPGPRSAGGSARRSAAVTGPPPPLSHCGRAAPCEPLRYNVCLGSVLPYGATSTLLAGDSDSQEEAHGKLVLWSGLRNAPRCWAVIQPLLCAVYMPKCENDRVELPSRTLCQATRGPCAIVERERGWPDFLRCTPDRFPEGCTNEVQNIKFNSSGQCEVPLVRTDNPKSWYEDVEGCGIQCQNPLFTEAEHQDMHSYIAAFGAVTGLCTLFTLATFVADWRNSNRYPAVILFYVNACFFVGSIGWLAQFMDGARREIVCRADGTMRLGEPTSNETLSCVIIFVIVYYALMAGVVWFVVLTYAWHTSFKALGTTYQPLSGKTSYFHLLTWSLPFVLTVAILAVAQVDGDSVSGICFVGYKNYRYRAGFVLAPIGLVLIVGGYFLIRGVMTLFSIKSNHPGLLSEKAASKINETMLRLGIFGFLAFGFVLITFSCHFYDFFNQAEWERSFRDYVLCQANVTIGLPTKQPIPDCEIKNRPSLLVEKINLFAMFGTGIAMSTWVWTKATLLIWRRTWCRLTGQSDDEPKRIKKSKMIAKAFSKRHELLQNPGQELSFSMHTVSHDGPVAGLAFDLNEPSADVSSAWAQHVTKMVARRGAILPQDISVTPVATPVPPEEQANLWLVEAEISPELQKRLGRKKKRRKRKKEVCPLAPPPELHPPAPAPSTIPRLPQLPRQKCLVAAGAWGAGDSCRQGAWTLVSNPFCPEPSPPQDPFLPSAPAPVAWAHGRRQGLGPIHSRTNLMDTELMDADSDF
T2 sequence (Q99835 28-787 D473H): as the sequence (Q99835 28-787) above, with D446H counted along it

For `COc1cccc(OC)c1NC(=O)c1ccc(Nc2ncc(SC)c(-c3ccc(OC(F)(F)F)cc3)n2)cc1` [Compound 22, N-(2,6-Dimethoxy-phenyl)-4-[5-methylsulfanyl-4-(4-trifluoromethoxy-phenyl)-pyrimidin-2-ylamino]-benzamide], the figures for the IC50 (at Smo wild type; in experiment [1]; on Smo D473H mutant) were under 100 nM, under 100 nM and 100 to 1000 nM, respectively.
On to `CSc1cnc(Nc2ccc(C(=O)Nc3ccccc3C)cc2)nc1-c1ccc(OC(F)(F)F)cc1` [Compound 23, 4-[5-Methylsulfanyl-4-(4-trifluoromethoxy-phenyl)-pyrimidin-2-ylamino]-N-o-tolyl-benzamide], for which the IC50 was under 100 nM on Smo wild type, 100 to 1000 nM in experiment [1] and 100 to 1000 nM on Smo D473H mutant.
For `CSc1cnc(Nc2ccc(C(=O)Nc3cc(CN4CCOCC4)ccc3C)cc2)nc1-c1ccc(OC(F)(F)F)cc1` [Compound 24, N-(2-Methyl-5-morpholin-4-ylmethyl-phenyl)-4-[5-methylsulfanyl-4-(4-trifluoromethoxy-phenyl)-pyrimidin-2-ylamino]-benzamide], the IC50 (on Smo wild type; in experiment [1]; on Smo D473H mutant) was under 100 nM in each case.
In the case of `COc1cccc(C)c1NC(=O)c1ccc(Nc2ncc(SC)c(-c3ccc(OC(F)(F)F)cc3)n2)cc1` [Compound 25, N-(2-Methoxy-6-methyl-phenyl)-4-[5-methylsulfanyl-4-(4-trifluoromethoxy-phenyl)-pyrimidin-2-ylamino]-benzamide], the IC50 (at Smo wild type; in experiment [1]; on Smo D473H mutant) was 100 to 1000 nM throughout.
Regarding `CSc1cnc(Nc2ccc(C(=O)Nc3cc(CN4CCOCC4)ccc3C)cc2)nc1-c1ccncc1` [Compound 26, N-(2-Methyl-5-morpholin-4-ylmethyl-phenyl)-4-(5-methylsulfanyl-4-pyridin-4-yl-pyrimidin-2-ylamino)-benzamide], the values for the IC50 (on Smo wild type; in experiment [1]; on Smo D473H mutant) were under 100 nM, under 100 nM and 100 to 1000 nM, respectively.
Consider `CSc1cnc(Nc2ccc(C(=O)Nc3cc(CN4CCOCC4)ccc3C)cc2)nc1-c1ccc(C(F)(F)F)cc1` [Compound 27, N-(2-Methyl-5-morpholin-4-ylmethyl-phenyl)-4-[5-methylsulfanyl-4-(4-tiifluoromethyl-phenyl)-pyrimidin-2-ylamino]-benzamide], for which the IC50 at Smo wild type was under 100 nM; in experiment [1], under 100 nM; on Smo D473H mutant it was 100 to 1000 nM.
`CSc1cnc(Nc2ccc(C(=O)Nc3cc(CN4CCCCC4)ccc3C)cc2)nc1-c1ccc(C(F)(F)F)cc1` [Compound 28, N-(2-Methyl-5-piperidin-1-ylmethyl-phenyl)-4-[5-methylsulfanyl-4-(4-trifluoromethyl-phenyl)-pyrimidin-2-ylamino]-benzamide]: the values for the IC50 (at Smo wild type; in experiment [1]; at Smo D473H mutant) were 100 to 1000 nM, under 100 nM and 100 to 1000 nM, respectively.
Consider `CSc1cnc(Nc2ccc(C(=O)Nc3c(C)cccc3C)cc2)nc1-c1ccc(F)cc1` [Compound 29, N-(2,6-Dimethyl-phenyl)-4-[4-(4-fluoro-phenyl)-5-methylsulfanyl-pyrimidin-2-ylamino]-benzamide], for which the IC50 (at Smo wild type; in experiment [1]; at Smo D473H mutant) was 100 to 1000 nM each time.
Regarding `CSc1cnc(Nc2ccc(C(=O)Nc3cc(CN4CCOCC4)ccc3C)cc2)nc1-c1ccc(F)cc1` [Compound 30, 4-[4-(4-Fluoro-phenyl)-5-methylsulfanyl-pyrimidin-2-ylamino]-N-(2-methyl-5-morpholin-4-ylmethyl-phenyl)-benzamide], the IC50 on Smo wild type was under 100 nM; in experiment [1], under 100 nM; on Smo D473H mutant it was 100 to 1000 nM.
Regarding `CSc1cnc(Nc2ccc(C(=O)Nc3cc(CN(C)C)ccc3C)cc2)nc1-c1ccc(F)cc1` [Compound 31, N-(5-Dimethylaminomethyl-2-methyl-phenyl)-4-[4-(4-fluoro-phenyl)-5-methylsulfanyl-pyrimidin-2-ylamino]-benzamide], the IC50 on Smo wild type is under 100 nM; in experiment [1], under 100 nM; at Smo D473H mutant, 100 to 1000 nM.
For the compound `CSc1cnc(Nc2ccc(C(=O)Nc3cc(CN(C)C)ccc3C)cc2)nc1-c1ccc(C(F)(F)F)cc1` [Compound 32, N-(5-Dimethylaminomethyl-2-methyl-phenyl)-4-[5-methylsulfanyl-4-(4-trifluoromethyl-phenyl)-pyrimidin-2-ylamino]-benzamide], the IC50 (on Smo wild type; in experiment [1]; at Smo D473H mutant) was 100 to 1000 nM each time.
As to `CSc1cnc(Nc2ccc(C(=O)Nc3cc(CN4CCOCC4)ccc3C)cc2)nc1-c1ccc(C#N)cc1` [Compound 33, 4-[4-(4-Cyano-phenyl)-5-methylsulfanyl-pyrimidin-2-ylamino]-N-(2-methyl-5-morpholin-4-ylmethyl-phenyl)-benzamide], the IC50 on Smo wild type is under 100 nM; in experiment [1] it was under 100 nM; at Smo D473H mutant, 100 to 1000 nM.
`CSc1cnc(Nc2ccc(C(=O)Nc3cc(CN(C)C)ccc3C)cc2)nc1-c1ccc(C#N)cc1` [Compound 34, 4-[4-(4-Cyano-phenyl)-5-methylsulfanyl-pyrimidin-2-ylamino]-N-(5-dimethylaminomethyl-2-methyl-phenyl)-benzamide]: the IC50 on Smo wild type is 100 to 1000 nM; in experiment [1], under 100 nM; at Smo D473H mutant, 100 to 1000 nM.
For the compound `CSc1cnc(Nc2ccc(C(=O)Nc3cc(CN4CCN(C)CC4)ccc3C)cc2)nc1-c1ccc(C#N)cc1` [Compound 35, 4-[4-(4-Cyano-phenyl)-5-methylsulfanyl-pyrimidin-2-ylamino]-N-[2-methyl-5-(4-methyl-piperazin-1-ylmethyl)-phenyl]-benzamide], the results for the IC50 (at Smo wild type; in experiment [1]; on Smo D473H mutant) were under 100 nM, under 100 nM and 100 to 1000 nM, respectively.
With `CSc1cnc(Nc2ccc(C(=O)Nc3cc(CN4CCN(C)CC4)ccc3C)cc2)nc1-c1ccc(F)cc1` [Compound 36, 4-[4-(4-Fluoro-phenyl)-5-methylsulfanyl-pyrimidin-2-ylamino]-N-[2-methyl-5-(4-methyl-piperazin-1-ylmethyl)-phenyl]-benzamide], the IC50 was under 100 nM at Smo wild type, under 100 nM in experiment [1] and 100 to 1000 nM at Smo D473H mutant.
Consider `CSc1cnc(Nc2ccc(C(=O)Nc3cc(CN4CCN(C)CC4)ccc3C)cc2)nc1-c1ccc(OC(F)(F)F)cc1` [Compound 37, N-[2-Methyl-5-(4-methyl-piperazin-1-ylmethyl)-phenyl]-4-[5-methylsulfanyl-4-(4-trifluoromethoxy-phenyl)-pyrimidin-2-ylamino]-benzamide], for which the IC50 is under 100 nM on Smo wild type, under 100 nM in experiment [1] and 100 to 1000 nM at Smo D473H mutant.
On to `COc1cnc(Nc2ccc(C(=O)Nc3cc(CN4CCOCC4)ccc3C)cc2)nc1-c1ccc(OC(F)(F)F)cc1` [Compound 38, 4-[5-Methoxy-4-(4-trifluoromethoxy-phenyl)-pyrimidin-2-ylamino]-N-(2-methyl-5-morpholin-4-ylmethyl-phenyl)-benzamide], for which the IC50 (on Smo wild type; in experiment [1]; at Smo D473H mutant) was under 100 nM each time.
On to `CSc1cnc(Nc2ccc(C(=O)Nc3cc(CN4CCOCC4)ccc3C)cc2)nc1-c1cnn(C)c1` [Compound 39, N-(2-Methyl-5-morpholin-4-ylmethyl-phenyl)-4-[4-(1-methyl-1H-pyrazol-4-yl)-5-methylsulfanyl-pyrimidin-2-ylamino]-benzamide], for which the IC50 (at Smo wild type; in experiment [1]; at Smo D473H mutant) was 100 to 1000 nM in each case.
Take `CSc1cnc(Nc2ccc(C(=O)Nc3cc(CN4CCOCC4)ccc3C)cc2F)nc1-c1ccc(OC(F)(F)F)cc1` [Compound 40, 3-Fluoro-N-(2-methyl-5-morpholin-4-ylmethyl-phenyl)-4-[5-methylsulfanyl-4-(4-trifluoromethoxy-phenyl)-pyrimidin-2-ylamino]-benzamide]: the IC50 (on Smo wild type; in experiment [1]; at Smo D473H mutant) was under 100 nM each time.
